# Experimental data taken from paper PMC6207715, “Determination of extended substrate specificity of the MALT1 as a strategy for the design of potent substrates and activity-based probes” (Scientific Reports, 2018).
# Where two headings read alike, the source gives them in different places.
# What was measured:
# MALT1 [1] = target: T1, MALT1 (Homo sapiens, UniProt Q9UDY8); assay: Inhibition kinetics of activity-based probe (kobs/I); type: biochemical
# T1 sequence (Q9UDY8 1-824): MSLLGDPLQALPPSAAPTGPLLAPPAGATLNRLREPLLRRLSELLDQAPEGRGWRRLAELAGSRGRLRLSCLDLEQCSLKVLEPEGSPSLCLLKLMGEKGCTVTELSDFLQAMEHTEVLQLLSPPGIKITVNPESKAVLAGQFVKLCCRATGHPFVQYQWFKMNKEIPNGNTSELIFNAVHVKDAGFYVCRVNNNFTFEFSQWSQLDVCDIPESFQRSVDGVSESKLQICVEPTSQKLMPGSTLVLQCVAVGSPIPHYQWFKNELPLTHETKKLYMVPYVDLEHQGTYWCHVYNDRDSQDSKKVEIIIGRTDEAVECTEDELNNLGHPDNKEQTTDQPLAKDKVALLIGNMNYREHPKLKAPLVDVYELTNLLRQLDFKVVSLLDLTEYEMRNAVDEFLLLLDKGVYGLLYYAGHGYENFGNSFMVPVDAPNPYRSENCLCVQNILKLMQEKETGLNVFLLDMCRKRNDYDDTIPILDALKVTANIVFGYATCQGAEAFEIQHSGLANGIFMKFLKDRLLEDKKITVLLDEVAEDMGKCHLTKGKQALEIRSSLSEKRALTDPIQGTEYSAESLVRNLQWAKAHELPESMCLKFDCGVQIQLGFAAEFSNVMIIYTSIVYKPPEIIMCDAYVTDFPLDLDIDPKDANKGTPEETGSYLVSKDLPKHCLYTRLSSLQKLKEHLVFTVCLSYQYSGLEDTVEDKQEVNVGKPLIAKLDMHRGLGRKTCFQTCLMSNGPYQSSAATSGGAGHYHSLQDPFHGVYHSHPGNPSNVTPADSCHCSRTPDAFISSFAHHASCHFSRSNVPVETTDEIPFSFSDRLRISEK
# MALT1^C/A = assay: MALT1 labeling with PKG105, SDS-PAGE fluorescence scan; type: biochemical; details: 100 nM enzyme; probe 500, 250, 125 nM; 30 minutes, 37 °C; gel scan 700 nm
# Experimental: (§1) MALT1^FL, MALT1^CD or MALT1^C/A at 100 nM were incubated with PKG105 at three different concentrations: 500 nM, 250 nM and 125 nM for 30 minutes at 37 °C. As a control, MALT1^FL without the probe was incubated in the assay buffer. Samples were denatured in 3 × SDS-loading buffer for 5 minutes at 95 °C. SDS-PAGE was performed under reducing conditions for 37 minutes at 165 V. The fluorescence signal in the gel was measured using a Li-Cor (Odyssey®) instrument at a wavelength of 700 nm.
# MALT1^CD = target: T2, MALT1^CD (Homo sapiens, UniProt Q9UDY8); assay: as above; type: biochemical; details: 100 nM enzyme; probe 500, 250, 125 nM; 30 minutes, 37 °C; gel scan 700 nm
# T2 construct: the MALT1 catalytic domain (MALT1^CD)
# T2 sequence (Q9UDY8 348-562 limits assumed): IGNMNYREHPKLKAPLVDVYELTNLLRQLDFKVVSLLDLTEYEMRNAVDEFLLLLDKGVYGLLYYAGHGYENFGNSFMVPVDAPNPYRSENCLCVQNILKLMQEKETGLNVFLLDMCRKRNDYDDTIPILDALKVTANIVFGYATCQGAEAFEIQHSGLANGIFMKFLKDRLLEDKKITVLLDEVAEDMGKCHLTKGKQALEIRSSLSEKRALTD
# Experimental: as §1
# MALT1^FL = target: T3, MALT1^FL (Homo sapiens, UniProt Q9UDY8); assay: as above; type: biochemical; details: 100 nM enzyme; probe 500, 250, 125 nM; 30 minutes, 37 °C; gel scan 700 nm
# T3 construct: treating full-length MALT1 (MALT1^FL), the MALT1 catalytic domain (MALT1^CD)
# T3 sequence (Q9UDY8 1-824): T1 sequence (Q9UDY8 1-824)
# Experimental: as §1
# [2] = tested on: MALT1 in RAW 264.7 cell lysates; assay: Labeling of active MALT1 in RAW 264.7 cell lysates; type: biochemical; details: RAW 264.7 lysates; probe 8 to 500 nM; 30 minutes, 37 °C; gel scan 700 nm
# Experimental: Figure 3 Probe to detect active MALT1. Panel a. Structure of the MALT1 probe (PKG105). Panel b. RAW 264.7 cell lysates were incubated with PKG105 at various concentrations. As a control, lysates were pretreated with mepazine, followed by incubation with probe. Lysates that were not treated with mepazine were also used. SDS-PAGE was performed at 165 V. Fluorescence was scanned using the 700 nm channel (LI-COR). Gels are representative of at least two replicates. TEXT PRINTED IN THE PICTURE: (a) PKG105: kobs/I = 92,000 M^-1s^-1
# Twenty-five microliters of RAW 264.7 cell lysates (from 5 * 10^6 cells/mL) were incubated with PKG105 at concentrations ranging from 8 to 500 nM. As controls, cells that were not incubated with probe or cells that were pretreated with 1 µL of 10 mM mepazine were treated with 500 nM PKG105. The lysates were incubated with the probe for 30 minutes at 37 °C, followed by denaturation in 3 × SDS-loading buffer for 5 minutes at 95 °C. SDS-PAGE was performed under reducing conditions for 37 minutes at 165 V. The fluorescence signal in the gel was measured using a Li-Cor (Odyssey®) at a wavelength of 700 nm.
# MALT1 [3] = target: T1, MALT1; details: cited from earlier work
# Text: (§2) Z-VRPR-FMK, which was originally designed as a plant metacaspase inhibitor[3], is the most frequently used MALT1 inhibitor and binds covalently to the MALT1 active site. Mepazine is another inhibitor of MALT1, but functions in a noncovalent and reversible manner, limiting its usefulness in studying the enzyme. […] Hachmann et al. described the first tetrapeptidic MALT1-activity-based probe, which was characterized by medium potency (kobs/I = 9, 300 M^−1s^−1)[2 ...
# caspase -3 = details: cited from earlier work
# Text: as §2
# caspase -8 = details: cited from earlier work
# Text: as §2
# caspase -9 = details: cited from earlier work
# Text: as §2
Compound,kobs/I (MALT1 [1]),kobs/I (MALT1 [1]; printed in Figure 3a),"kobs/I relative to the best MALT1 inhibitor in the literature (MALT1 [1]; times higher than 9,300 s^−1M^−1)",labeling of MALT1^C/A catalytic mutant by probe (MALT1^C/A),labeling of MALT1^CD by probe (MALT1^CD),labeling of MALT1^FL by probe (MALT1^FL),detection of active MALT1 in cell lysates by probe [2],IC50 (MALT1 [3]) [µM],activity toward caspase -3 (caspase -3),activity toward caspase -8 (caspase -8),activity toward caspase -9 (caspase -9)
Cy5-Phe(guan)-Leu-Val-Pro-Arg-AOMK [PKG105],"92,000 s^−1M^−1","92,000 M^-1s^-1",approximately 10 times,no labeling was observed,detected enzyme activity,detected enzyme activity,detected active MALT1,–,–,–,–
COCCOc1nc(-c2ccc(Cl)c(Cl)c2)n(-c2ccc(NC(=O)CCl)cc2)n1 [MI-2],–,–,–,–,–,–,–,5.84,exhibits activity,exhibits activity,exhibits activity
